Measured values reported in ChEMBL document CHEMBL1150464, “Glycosyl derivatives of NK2 tachykinin receptor antagonists” (Bioorg Med Chem Lett, 1996).
Calls of active or inactive are those of the source. The rule behind the calls is not given here. Peptide text beside a SMILES is read from it. * marks the point of attachment. βGlc = OC[C@H]1O[C@@H](*)[C@H](O)[C@@H](O)[C@@H]1O

Key:
Assay type in all cases: functional
[1] = target: T1, Substance-K receptor (Mesocricetus auratus) (UniProt P51144); assay: Compound was tested for its antagonistic activity against tachykinin NK2 receptor in hamster trachea (HT).
T1 sequence (whole entry): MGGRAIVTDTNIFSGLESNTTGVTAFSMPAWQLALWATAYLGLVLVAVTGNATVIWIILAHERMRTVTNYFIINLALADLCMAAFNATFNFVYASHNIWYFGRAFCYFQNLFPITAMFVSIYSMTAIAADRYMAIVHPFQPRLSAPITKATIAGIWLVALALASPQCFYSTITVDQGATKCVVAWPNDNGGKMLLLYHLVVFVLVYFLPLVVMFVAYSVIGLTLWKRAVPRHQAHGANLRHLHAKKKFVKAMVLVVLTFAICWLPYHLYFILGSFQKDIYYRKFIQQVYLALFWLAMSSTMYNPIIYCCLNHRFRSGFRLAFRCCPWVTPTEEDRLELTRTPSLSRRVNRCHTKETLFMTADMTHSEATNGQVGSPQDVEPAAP

[2] = target: T2, Substance-K receptor (Oryctolagus cuniculus) (UniProt P79218); assay: Compound was tested for its antagonistic activity against tachykinin NK2 receptor in isolated rabbit pulmonary artery (RPA).
T2 sequence (whole entry): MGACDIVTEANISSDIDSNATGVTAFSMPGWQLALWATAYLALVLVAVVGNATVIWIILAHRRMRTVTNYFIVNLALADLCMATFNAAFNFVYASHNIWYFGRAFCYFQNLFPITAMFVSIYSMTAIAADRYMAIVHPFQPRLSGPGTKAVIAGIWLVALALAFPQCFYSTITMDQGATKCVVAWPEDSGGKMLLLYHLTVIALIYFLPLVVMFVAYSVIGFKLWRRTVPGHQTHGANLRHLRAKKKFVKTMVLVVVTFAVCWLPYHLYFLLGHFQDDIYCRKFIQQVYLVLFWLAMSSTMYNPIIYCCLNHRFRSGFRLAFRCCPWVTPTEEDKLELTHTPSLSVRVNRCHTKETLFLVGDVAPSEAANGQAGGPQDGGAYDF

[3] = target: T1, Substance-K receptor (Mesocricetus auratus); assay: Compound was tested for its antagonistic activity against tachykinin NK2 receptor in hamster trachea (HT); inactive up to 10 uM

Row | SMILES | pKB [1] | pKB [2] | pKB [3]
1 | CC(C)[C@H](NC(=O)[C@@H](Cc1c[nH]c2ccccc12)NC(=O)[C@H](Cc1ccc(O)cc1)NC(=O)[C@@H](N)CC(=O)O)C(=O)N[C@H](Cc1c[nH]c2ccccc12)C(N)=O | 5.4 | 6.3 | –
2 | CC(C)[C@H](NC(=O)[C@H](Cc1c[nH]c2ccccc12)NC(=O)[C@H](Cc1ccc(O[C@@H]2O[C@H](CO)[C@@H](O)[C@H](O)[C@H]2O)cc1)NC(=O)[C@@H](N)CC(=O)O)C(=O)N[C@@H](Cc1c[nH]c2ccccc12)C(N)=O (H-DY(βGlc)WVW-NH2) | – | < 5 | inactive
3 | CC(C)[C@H](NC(=O)[C@H](Cc1c[nH]c2ccccc12)NC(=O)[C@H](Cc1ccc(O)cc1)NC(=O)[C@@H](N)CC(=O)O)C(=O)N[C@H](Cc1c[nH]c2ccccc12)C(=O)N[C@@H](Cc1c[nH]c2ccccc12)C(=O)N[C@@H](CCCCN)C(N)=O | 5.6 | 8.1 | –
4 | CC(C)[C@H](NC(=O)C(Cc1c[nH]c2ccccc12)NC(=O)[C@H](Cc1ccc(O)cc1)NC(=O)[C@H](CC(=O)O)NC(=O)[C@@H](N)CO[C@@H]1O[C@H](CO)[C@@H](O)[C@H](O)[C@H]1O)C(=O)NC(Cc1c[nH]c2ccccc12)C(N)=O (stereo in doubt) | < 6 | < 6 | –

Next, values leading:

Row | pKB [1] | pKB [2] | pKB [3] | SMILES
5 | – | 6.2 | inactive | CC(C)[C@H](NC(=O)[C@H](Cc1c[nH]c2ccccc12)NC(=O)[C@H](Cc1ccc(O[C@@H]2O[C@H](CO)[C@@H](O)[C@H](O)[C@H]2O)cc1)NC(=O)[C@@H](N)CC(=O)O)C(=O)N[C@@H](Cc1c[nH]c2ccccc12)C(=O)N[C@H](Cc1c[nH]c2ccccc12)C(=O)N[C@@H](CCCCN)C(N)=O
6 | < 5 | 7.2 | – | CC(C)[C@H](NC(=O)[C@H](Cc1c[nH]c2ccccc12)NC(=O)[C@H](Cc1ccc(O)cc1)NC(=O)[C@H](CC(=O)O)NC(=O)[C@@H](N)Cc1ccc(O[C@@H]2O[C@H](CO)[C@@H](O)[C@H](O)[C@H]2O)cc1)C(=O)N[C@@H](Cc1c[nH]c2ccccc12)C(=O)N[C@H](Cc1c[nH]c2ccccc12)C(=O)N[C@@H](CCCCN)C(N)=O
7 | < 5 | 7.3 | – | CC(C)[C@H](NC(=O)[C@H](Cc1c[nH]c2ccccc12)NC(=O)[C@H](Cc1ccc(O)cc1)NC(=O)[C@H](CC(=O)O)NC(=O)[C@@H](N)CO[C@@H]1O[C@H](CO)[C@@H](O)[C@H](O)[C@H]1O)C(=O)N[C@@H](Cc1c[nH]c2ccccc12)C(=O)N[C@H](Cc1c[nH]c2ccccc12)C(=O)N[C@@H](CCCCN)C(N)=O
